How the values were obtained:
[1] = type: physicochemical
[2] = test system: RSK2-CTD-mediated autophosphorylation of Ser386; assay: pS386 RSK inhibition in MDA-MB-231 cells; type: cell-based
[3] = test system: RSK1/2; assay: Cellular RSK1/2 occupancy assay using FMK-BODIPY; type: cell-based; conditions: MDA-MB-231 cells
[4] = test system: RSK1/2; assay: Cellular RSK1/2 occupancy after inhibitor washout; type: cell-based; conditions: MDA-MB-231 cells, 1 μM inhibitor
[5] = Reaction with 10 mM glutathione; type: physicochemical

potency relative to CN-NHiPr in the cellular occupancy assay [3]	t1/2 of reaction with 10 mM glutathione [5]	SMILES	reaction with BME, stability or reversibility of the adduct [1]	potency relative to CN-NHiPr in the autophosphorylation assay [2]	time to reappearance of inhibitor-free RSK1/2 after washout [4]
		N#C/C=C/c1ccccc1 [Compound 2, cinnamonitrile]	stable thioether adducts		
less potent than CN-NHiPr	16 h	Cc1ccc(-c2c(C(=O)CF)n(CCCO)c3ncnc(N)c23)cc1 [FMK]		less potent than CN-NHiPr	at least 48 h

Reference: publication PMC3657615 (Nature chemical biology, 2012)
